Converted amounts (≈) assume the structure as drawn. “Also recorded” adds a separate entry of the source. Like-named read-outs stand apart in the source and are kept apart here.
Experiments:
[1] = Alamar Blue cell viability/cytotoxicity assay; type: cell-based, human; conditions: human, mean ± SD (n = 4), read-out: IC50 of pesticide-induced cytotoxicity
Procedure: (§1) In this study, to assess the cytotoxic activity of GLY, IMD, and IMZ, human epithelial colorectal adenocarcinoma (Caco-2), cell lines service (CLS), (Eppelheim, Germany) and human hepatocellular carcinoma (HepG2) (ATCC, Rockville, Maryland, USA) cells were used. Cells were cultured in complete culture media (Dulbecco’s Modified Eagle Media (DMEM), supplemented with 1 mM L-glutamine, 10% (v/v) foetal bovine serum (FBS), and antibiotics (penicillin at 100 U/mL, and streptomycin at 100 μg/mL)) and maintained at 5% CO2/95% air; 37 °C, controlled humidity, in an incubator. Cells were grown in T25 culture flasks to near confluence. Then, these adherent cells were treated with trypsin (trypsin-EDTA), for detachment and subculture, which was stopped using complete culture medium (1:1, trypsin:culture media) as soon as cells were detached (about 6 and 8 minutes of trypsin treatment for HepG2 and Caco-2 cells, respectively). Detached cells were gently re-suspended with a Pasteur pipette and then a sample was counted using an automated cell counter (TC10™, BIORAD, Portugal). A suspension of cells in fresh culture media, at 5 × 10^4 cells/mL was prepared to seed into 96-well microplates (100 µL/well). After seeding, cells were placed in the incubator for 48 h (to adhere and stabilize) before being used, for other details see [66, 67].
(§2) Cell viability was assessed using the Alamar Blue® (AB) assay, after exposure to the pesticides. In summary, cells seeded into 96-well microplates were subjected to various concentrations of the pesticides (GLY: 0–1 mM; IMD: 0–1 mM; IMZ: 0–0.3 mM). To prepare the test solutions, the appropriate volume of the pesticide stock solution was diluted in FBS-free culture media just before its application to the cells. Stock solution of GLY was prepared in water (at 40 mM), and stock solutions of IMD and IMZ were prepared in DMSO (at 20 mM). After 24 h or 48 h of exposure, the test solutions were removed and the Alamar Blue solution (100 µL/well; 10% (v/v) in FBS-free medium) was immediately added to the cells, followed by a further 5 h incubation. The absorbance was then read at 570 and 620 nm using a microplate reader (Multiskan EX; MTX Lab Systems, Inc., Bradenton, FL, USA) and the percentage of the AB reduction was calculated according to the manufacturer’s instructions, as described before. Cell viability, at each condition, was calculated and expressed as percentage of control cells (non-exposed cells).
(§3) The concentrations needed to reduce cell viability by 50% (IC50) were calculated from three independent experiments (each one performed in quadruplicates), as described.

HepG2 cells [2] = test: Alamar Blue cell viability/cytotoxicity assay; type: cell-based, human; conditions: HepG2
Procedure: as §1, §2, §3

Caco-2 cells [3] = test: Alamar Blue cell viability/cytotoxicity assay; type: cell-based, human
Procedure: as §1, §2, §3

HepG2 cells [4] = test: Lipid peroxidation, DHPE-FITC probe, flow cytometry; type: cell-based, human; conditions: HepG2, 24 h, tested concentrations
Procedure: (§4) Lipid peroxidation was evaluated using the DHPE-FITC probe. Cells re-suspended in PBS (see Section 3.3.1) were incubated with 20 μM DHPE-FITC, for 20 min in the dark at room temperature (as describe).

Caco-2 cells [5] = test: as above; type: cell-based, human; conditions: Caco-2, 24 h, tested concentrations
Procedure: as §4

HepG2 cells [6] = test: Apoptosis/necrosis, Annexin-V-FITC/PI double staining, flow cytometry; type: cell-based, human; conditions: HepG2, 24 h, tested concentrations; listed as IMZ
Procedure: (§5) The samples where then incubated for 20 min at room temperature. After this period, 5 μL of propidium iodide (PI; at 50 μg/mL) solution were added to each sample 3 min before acquisition.

Caco-2 cells [7] = test: as above; type: cell-based, human
Procedure: as §5

[8] = ref [47],[48],[49],[50]; cited from earlier work
Caco-2 cells [9] = test: Literature: Caco-2 cell viability; type: cell-based, human; conditions: Caco-2, 24 h, ref [34] value vs Table 1
Caco-2 cells [10] = system: Caco-2 cells; design: method as in doi:10.1016/j.envpol.2020.114660; conditions: Caco-2, 30 µg/mL (~100 µM), fluorescence microscopy; ref [34]; cited from earlier work
Caco-2 cells [11] = conditions: Caco-2, 24 h, ref [34], cited from earlier work
HepG2 cells [12] = test: Glutathione (GSH) content, Mercury Orange, flow cytometry; type: cell-based, human
Procedure: (§6) To assess GSH content, cells re-suspended in PBS (see Section 3.3.1) were incubated with 40 μM Mercury Orange (1-(4-chloromercuryphenyl-azo-2-naphtol) for 5 min (in the dark, room temperature), as described by du Plessis, et al..

Caco-2 cells [13] = test: as above; type: cell-based, human
Procedure: as §6

HepG2 cells [14] = test: Intracellular ROS content, DCFDA, flow cytometry; type: cell-based, human; conditions: HepG2, 75 μM, 24 h
Procedure: (§7) To assess pesticides-induced oxidative stress, the intracellular content in reactive oxygen species (ROS), content in glutathione (GSH), and lipid peroxidation was quantified by flow cytometry, following the methods described by Domínguez-Perles, et al. and Queiroz, et al.. Briefly, to assess ROS content, cells re-suspended in PBS (from Section 3.3.1) were centrifuged (5 min, 3000 rpm, bench micro-centrifuge) and, after eliminating the supernatant, 200 μL of 10 µM DCFDA solution (prepared in FBS-free DMEM) was added to each sample. After a 45 min incubation at 37 °C (in the dark, in an incubator), cells were centrifuged to remove excess of probe and re-suspended in PBS. Finally, 5 μL of propidium iodide (PI; 50 μg/mL) was added to each sample 3 min before flow cytometry acquisition.

Caco-2 cells [15] = test: Intracellular ROS content, DCFDA, flow cytometry; type: cell-based, human; conditions: 24 h
Procedure: as §7

[16] = ref [47],[48],[49],[50]; cited from earlier work; remark: listed apart in the source

C=CCOC(Cn1ccnc1)c1ccc(Cl)cc1Cl (centres unmarked) [Imazalil, imazalil]
IC50 at 24 h ([1]; Caco-2 cells, Caco-2, 24 h exposure): 254 ± 3.37 µM | IC50 at 48 h ([1]; Caco-2 cells, Caco-2, 48 h exposure): 187 ± 2 µM | IC50 at 24 h ([1]; HepG2 cells, HepG2, 24 h exposure): 94 ± 12 µM | IC50 at 48 h ([1]; HepG2 cells, HepG2, 48 h exposure): 47 ± 3 µM | decrease in IC50 when doubling the exposure time (24 h to 48 h) (HepG2 cells [2]): 2 fold | IC50 for Caco-2 cells relative to HepG2 cells (Caco-2 cells [3]; 24 h exposure): 2.7 fold | IC50 for Caco-2 cells relative to HepG2 cells (Caco-2 cells [3]; 48 h exposure): 4 fold | IC50 at 24 h relative to IC50 at 48 h (Caco-2 cells [3]; Caco-2): 1.35 fold | IC50 (Caco-2 cells [3]; Caco-2, 24 h exposure, mean ± SD (n = 4), read-out: IC50 of pesticide-induced cytotoxicity): 254 ± 3 µM | lipid peroxidation (LP) vs control (in words) (HepG2 cells [4]): did not increase lipid peroxidation | lipid peroxidation (LP) vs control (in words) (Caco-2 cells [5]): induced significant LP | apoptosis/necrosis induction (in words) (HepG2 cells [6]): dose-dependently increased apoptosis; also recorded: no necrotic events recorded | apoptosis/necrosis induction (in words) (Caco-2 cells [7]; Caco-2, 24 h, tested concentrations, listed as IMZ): dose-dependent increase in late apoptosis | cells in necrosis (Caco-2 cells [7]; Caco-2, highest concentration (250 μM), 24 h, Figure 6B): ~ 23% | Partition Coefficient n-octanol/water (Log Pow) [8]: 4.56 | Water solubility [8]: 1400 µg/mL | literature IC50 lower than the IC50 here reported (Caco-2 cells [9]): 2.53 fold | ROS content (in words) (Caco-2 cells [10]): increase in ROS content | IC50 (Caco-2 cells [11]; converted value, read-out: IC50 (cytotoxicity)): ~100 µM | IC50 (cytotoxicity) (Caco-2 cells [11]): 30 µg/mL (≈ 101 µM) | increase in GSH content vs control (HepG2 cells [12]; HepG2, 75 μM, 24 h): 1.97 fold | change in GSH content vs control (in words) (HepG2 cells [12]; HepG2, 24 h, tested concentrations): dose-dependent increase in GSH content | increase in GSH content vs control (Caco-2 cells [13]; Caco-2, 250 μM, 24 h): 1.59 fold | change in GSH content vs control (in words) (Caco-2 cells [13]; Caco-2, 24 h, tested concentrations): dose-dependent increase in GSH content | increase in ROS content compared with control (HepG2 cells [14]): 4.56 fold | increase in ROS content compared with control (Caco-2 cells [15]; Caco-2, 75 μM): 2.40 fold | increase in ROS content compared with control (Caco-2 cells [15]; Caco-2, 250 μM): 6.5 fold | H-bond (donor count) [16]: 0 | H-donor (acceptor count) [16]: 2

Reference: paper PMC9331544, “Molecular Physicochemical Properties of Selected Pesticides as Predictive Factors for Oxidative Stress and Apoptosis-Dependent Cell Death in Caco-2 and HepG2 Cells” (International Journal of Molecular Sciences, 2022)
